How the values were obtained:
Assay type in all cases: in vivo
pear tree (Housui) = assay: reducing water core and improving fruit quality, spray on pear tree
Procedure: The effects of a quality improver in reducing water core and improving fruit quality were evaluated using a pear tree (Housui).
That is, the quality improver of Example 1 was sprayed on the pear tree at the polyvalent metal concentrations shown in Table 14 over four times from late April (ten-day interval) and two times from middle July (ten-day interval). Each treatment was conducted on each branch by spraying with a backpack sprayer.
The evaluation was carried out on 30 randomly selected fruits. The degree of water core was evaluated by examining three cross sections of the stalk cavity part, the equatorial part, and the calyx end part of the fruit based on a 4-point scale (none=0, mild=1, moderate=2, severe=3). The result of the evaluation was expressed by the following equation: water core index={(1×the number of fruits with mild water core)+(2×the number of fruits with moderate water core)+(3×the number of fruits with severe water core)}/(the number of fruits examined). The fruit with a water core index of 2 or 3 was considered as a seriously damaged fruit. The ground color of fruit skin was determined using a color chart for Japanese pear based on a scale of 1 (immature) to 6 (overmature). The sugar content was determined using a sugar refractometer. The dirt on a fruit surface was evaluated by a ratio of the surface area soiled whitish to the total surface area of the fruit on a scale of 1 to 5 (not soiled=1, slightly soiled=2, a little soiled=3, moderately soiled=4, much soiled=5). The phytotoxicity was evaluated on a scale of 1 to 5 (normal=1, slightly damaged=2, a little damaged=3, moderately damaged=4, much damaged=5).
The examinations were carried out in the same manner as in Application Example 94 except that the quality improvers of Examples 2 to 4, 6 to 7, 12, 14, 17 to 18, and Comparative Examples 1 to 4 were used instead of the quality improver of Example 1.

apple tree (Orin) = assay: reducing bitter pit and improving fruit quality, spray on apple tree; settings: for Incidence of bitter pit: 50 fruits, sprayed four times; for Ground color: fruit skin, 5-point scale (best=5, worst=1); for Phytotoxicity: scale of 1 to 5; for Sugar content: sugar refractometer; for Acidity: titratable malic acid content
Procedure: The effects of a quality improver in reducing bitter pit and improving fruit quality were evaluated using an apple tree (Orin). That is, the quality improver of Example 1 was sprayed on the apple tree at the polyvalent metal concentrations shown in Table 4 over four times from early June (two-week interval). Each treatment was conducted on each branch by spraying with a backpack sprayer.
The evaluation was carried out on 50 randomly selected fruits. The incidence of bitter pit was expressed as a ratio of the number of fruits with bitter pit to the total number of fruits examined. The ground color of fruit skin was determined on a 5-point scale (best=5, worst=1). The sugar content was determined using a sugar refractometer. The acidity was expressed as titratable malic acid content. The phytotoxicity was evaluated on a scale of 1 to 5 (normal=1, slightly damaged=2, a little damaged=3, moderately damaged=4, much damaged=5).
The examinations were carried out in the same manner as in Application Example 22 except that the quality improvers of Examples 2 to 21 and Comparative Examples 1 to 4 were used instead of the quality improver of Example 1.

[1] = system: cherry fruit tree (Satonishiki); assay: reducing fruit-cracking and improving fruit quality, spray on cherry fruit tree
Procedure: The effects of a quality improver in reducing fruit-cracking and improving fruit quality were evaluated using a cherry fruit tree (Satonishiki). That is, the quality improver of Example 1 was sprayed on the cherry fruit tree at the polyvalent metal concentrations shown in Table 10 over three times from early May (two-week interval). Each treatment was conducted on each branch by spraying with a backpack sprayer.
The evaluation was carried out on 50 randomly selected fruits. The incidence of fruit-cracking was expressed as a ratio of the number of fruits with cracking to the total number of fruits examined. The degree of fruit coloring was expressed as the colored area of a fruit. The sugar content was determined using a sugar refractometer. The acidity was expressed as titratable malic acid content. The dirt on a fruit surface was evaluated by a ratio of the surface area soiled whitish to the total surface area of the fruit on a scale of 1 to 5 (not soiled=1, slightly soiled=2, a little soiled=3, moderately soiled=4, much soiled=5). The phytotoxicity was evaluated on a scale of 1 to 5 (normal=1, slightly damaged=2, a little damaged=3, moderately damaged=4, much damaged=5).
The examinations were carried out in the same manner as in Application Example 64 except that the quality improvers of Examples 2 to 4, 6 to 7, 12, 14, 17 to 18, and Comparative Examples 1 to 4 were used instead of the quality improver of Example 1.

Compound	Ground color (pear tree (Housui); polyvalent metal 0.030 wt. %)	Phytotoxicity (pear tree (Housui); polyvalent metal 0.030 wt. %)	Seriously damaged fruit (pear tree (Housui); polyvalent metal 0.030 wt. %) [%]	Sugar content (pear tree (Housui); polyvalent metal 0.030 wt. %)	Water core index (pear tree (Housui); polyvalent metal 0.030 wt. %)	Ground color (pear tree (Housui); polyvalent metal 0.075 wt. %)	Phytotoxicity (pear tree (Housui); polyvalent metal 0.075 wt. %)	Seriously damaged fruit (pear tree (Housui); polyvalent metal 0.075 wt. %) [%]	Sugar content (pear tree (Housui); polyvalent metal 0.075 wt. %)	Water core index (pear tree (Housui); polyvalent metal 0.075 wt. %)	Incidence of bitter pit (apple tree (Orin); polyvalent metal 0.030 wt. %) [%]	Incidence of bitter pit (apple tree (Orin); polyvalent metal 0.075 wt. %) [%]	Ground color (apple tree (Orin); polyvalent metal 0.030 wt. %)	Ground color (apple tree (Orin); polyvalent metal 0.075 wt. %)	Phytotoxicity (apple tree (Orin); polyvalent metal 0.030 wt. %)	Phytotoxicity (apple tree (Orin); polyvalent metal 0.075 wt. %)	Sugar content (apple tree (Orin); polyvalent metal 0.030 wt. %)	Sugar content (apple tree (Orin); polyvalent metal 0.075 wt. %)	Acidity (apple tree (Orin); polyvalent metal 0.030 wt. %)	Acidity (apple tree (Orin); polyvalent metal 0.075 wt. %)	other results
O=C[O-].O=C[O-].[Ca+2] [calcium formate]	3.6	3	23.3	13.0	0.80	3.8	3	16.7	13.2	0.77	26.0	24.0	3.8	3.8	3	3	14.5	14.9	0.38	0.30	Acidity ([1]; polyvalent metal 0.030 wt. %): 0.63; Degree of fruit coloring ([1]; polyvalent metal 0.030 wt. %): 80.5; Incidence of fruit-cracking ([1]; polyvalent metal 0.030 wt. %): 16.1%; Phytotoxicity ([1]; polyvalent metal 0.030 wt. %): 3; Sugar content ([1]; polyvalent metal 0.030 wt. %): 19.9; Acidity ([1]; polyvalent metal 0.075 wt. %): 0.62; Degree of fruit coloring ([1]; polyvalent metal 0.075 wt. %): 80.3; Incidence of fruit-cracking ([1]; polyvalent metal 0.075 wt. %): 15.6%; Phytotoxicity ([1]; polyvalent metal 0.075 wt. %): 3; Sugar content ([1]; polyvalent metal 0.075 wt. %): 20.2
[Ca+2].[Cl-].[Cl-] [calcium chloride]	3.7	4	30.0	12.8	0.97	3.5	4	26.7	12.6	0.90	30.0	25.0	3.7	3.9	4	4	14.1	14.2	0.37	0.35	Acidity ([1]; polyvalent metal 0.030 wt. %): 0.64; Degree of fruit coloring ([1]; polyvalent metal 0.030 wt. %): 79.2; Incidence of fruit-cracking ([1]; polyvalent metal 0.030 wt. %): 18.2%; Phytotoxicity ([1]; polyvalent metal 0.030 wt. %): 4; Sugar content ([1]; polyvalent metal 0.030 wt. %): 19.4; Acidity ([1]; polyvalent metal 0.075 wt. %): 0.66; Degree of fruit coloring ([1]; polyvalent metal 0.075 wt. %): 78.4; Incidence of fruit-cracking ([1]; polyvalent metal 0.075 wt. %): 18.5%; Phytotoxicity ([1]; polyvalent metal 0.075 wt. %): 4; Sugar content ([1]; polyvalent metal 0.075 wt. %): 19.2
